Each structure is given as a SMILES string. pIC50: −log10 of the molar value.

We go through twelve compounds from patent US9540366B2, “Ring-fused heterocyclic compound” (Kyowa Hakko Kirin Co., Ltd., priority 2012, dated 2017).

The experiment concerns the target T1, human Cav3.2 T-type Ca2+ channel (Homo sapiens, UniProt O95180).
T1 construct: expressed in transfected cells; host or cells: KJMGER8 cells (Namalwa cell-derived cell line)
The experiment can be described thus: Inhibitory effect for intracellular calcium response via Cav3.2 T-type Ca2+ channels (FLIPR Calcium 3 Assay Kit). The format is cell-based.

T1 sequence (O95180 whole entry): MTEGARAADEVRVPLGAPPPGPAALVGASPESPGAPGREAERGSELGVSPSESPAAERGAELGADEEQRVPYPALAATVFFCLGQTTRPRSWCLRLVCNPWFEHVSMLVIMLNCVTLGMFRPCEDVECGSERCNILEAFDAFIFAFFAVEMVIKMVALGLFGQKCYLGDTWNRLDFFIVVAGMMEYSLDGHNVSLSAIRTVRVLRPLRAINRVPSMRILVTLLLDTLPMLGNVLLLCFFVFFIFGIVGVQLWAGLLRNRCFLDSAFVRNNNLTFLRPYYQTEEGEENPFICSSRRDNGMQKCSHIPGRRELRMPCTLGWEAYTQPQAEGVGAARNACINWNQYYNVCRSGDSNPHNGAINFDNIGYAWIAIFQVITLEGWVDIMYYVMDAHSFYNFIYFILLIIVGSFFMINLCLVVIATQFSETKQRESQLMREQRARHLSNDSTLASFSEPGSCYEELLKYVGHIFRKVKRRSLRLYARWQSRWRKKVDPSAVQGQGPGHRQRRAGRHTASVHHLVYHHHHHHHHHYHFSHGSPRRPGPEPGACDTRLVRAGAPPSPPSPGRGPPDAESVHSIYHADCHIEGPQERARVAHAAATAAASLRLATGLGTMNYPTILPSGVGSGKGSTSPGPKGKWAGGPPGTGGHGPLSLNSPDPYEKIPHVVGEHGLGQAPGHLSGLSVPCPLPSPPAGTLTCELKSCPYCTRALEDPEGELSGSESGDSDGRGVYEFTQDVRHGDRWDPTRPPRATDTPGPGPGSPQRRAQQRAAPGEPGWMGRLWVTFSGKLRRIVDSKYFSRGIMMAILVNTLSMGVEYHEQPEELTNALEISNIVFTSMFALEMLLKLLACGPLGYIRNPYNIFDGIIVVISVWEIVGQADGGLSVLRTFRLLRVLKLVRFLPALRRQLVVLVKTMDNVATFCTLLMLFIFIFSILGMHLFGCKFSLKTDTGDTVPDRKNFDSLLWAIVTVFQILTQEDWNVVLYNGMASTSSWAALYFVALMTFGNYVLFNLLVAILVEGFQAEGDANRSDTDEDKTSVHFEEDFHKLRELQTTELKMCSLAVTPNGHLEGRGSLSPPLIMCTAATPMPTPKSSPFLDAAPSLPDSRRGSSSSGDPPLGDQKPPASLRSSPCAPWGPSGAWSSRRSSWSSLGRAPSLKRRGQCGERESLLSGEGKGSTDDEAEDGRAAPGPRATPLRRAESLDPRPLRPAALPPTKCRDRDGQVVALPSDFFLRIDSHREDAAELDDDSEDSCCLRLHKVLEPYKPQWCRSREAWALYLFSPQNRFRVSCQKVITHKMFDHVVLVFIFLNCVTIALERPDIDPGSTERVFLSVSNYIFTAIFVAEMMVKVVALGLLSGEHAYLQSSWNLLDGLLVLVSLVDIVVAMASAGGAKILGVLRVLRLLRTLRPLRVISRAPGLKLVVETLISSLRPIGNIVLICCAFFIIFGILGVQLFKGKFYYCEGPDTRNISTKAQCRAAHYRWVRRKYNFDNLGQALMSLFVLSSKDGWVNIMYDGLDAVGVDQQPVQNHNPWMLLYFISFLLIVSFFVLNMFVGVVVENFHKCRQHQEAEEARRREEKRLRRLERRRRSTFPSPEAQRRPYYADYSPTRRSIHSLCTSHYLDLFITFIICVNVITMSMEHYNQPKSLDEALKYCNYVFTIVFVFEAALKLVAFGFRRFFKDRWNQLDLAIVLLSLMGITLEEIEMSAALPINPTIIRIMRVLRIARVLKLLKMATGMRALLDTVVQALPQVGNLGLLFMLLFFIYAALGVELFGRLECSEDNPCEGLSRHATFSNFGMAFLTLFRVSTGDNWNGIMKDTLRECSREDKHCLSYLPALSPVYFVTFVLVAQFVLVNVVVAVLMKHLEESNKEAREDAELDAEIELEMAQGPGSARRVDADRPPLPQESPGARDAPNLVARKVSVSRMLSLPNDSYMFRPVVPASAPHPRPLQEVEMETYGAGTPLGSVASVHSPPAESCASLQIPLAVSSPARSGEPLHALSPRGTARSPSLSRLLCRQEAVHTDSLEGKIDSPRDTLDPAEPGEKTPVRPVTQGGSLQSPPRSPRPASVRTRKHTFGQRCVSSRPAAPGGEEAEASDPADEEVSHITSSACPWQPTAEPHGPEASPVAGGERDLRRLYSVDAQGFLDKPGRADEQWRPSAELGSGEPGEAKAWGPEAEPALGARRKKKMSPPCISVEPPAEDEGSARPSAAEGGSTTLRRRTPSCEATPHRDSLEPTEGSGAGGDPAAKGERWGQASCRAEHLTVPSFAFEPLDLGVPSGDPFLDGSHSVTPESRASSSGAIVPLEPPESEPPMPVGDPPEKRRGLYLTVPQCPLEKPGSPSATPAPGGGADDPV

The term pIC50 denotes the IC50 on a negative log10 scale, so that one unit is a factor of ten. With `CC(C)(C)C(=O)NC(=O)c1cc(C#N)n2c(CC3CCC(F)(F)CC3)c(C(F)(F)F)nc2c1` [Compound 203, 5-Cyano-3-[(4,4-difluorocyclohexyl)methyl]-N-pivaloyl-2-(trifluoromethyl)imidazo[1,2-a]pyridine-7-carboxamide], the pIC50 was not below 7.00.
The result for `CCCCc1c(C(C)C)nc2cc(C(=O)Nc3ccccc3)ccn12` [Compound 144, 3-Butyl-2-isopropyl-N-phenylimidazo[1,2-a]pyridine-7-carboxamide] reads not below 7.00; that for `N#Cc1cc(C(=O)NC2CCC2)cc2nc(C(F)(F)F)c(CC3CCC(F)(F)CC3)n12` [Compound 54, 5-Cyano-N-cyclobutyl-3-[(4,4-difluorocyclohexyl)methyl]-2-(trifluoromethyl)imidazo[1,2-a]pyridine-7-carboxamide], not below 7.00; that for `N#Cc1cc(C(=O)N[C@H]2CC[C@H](O)CC2)cc2nc(C(F)(F)F)c(CC3CCC(F)(F)CC3)n12` [Compound 56, 5-Cyano-3-[(4,4-difluorocyclohexyl)methyl]-N-[(1R,4R)-4-hydroxycyclohexyl]-2-(trifluoromethyl)imidazo[1,2-a]pyridine-7-carboxamide], not below 7.00.
Next, `CC(F)(F)c1nc2cc(C(=O)NC3CCOCC3)cc(C#N)n2c1Cc1ccc(Cl)cc1` [Compound 221, 3-(4-Chlorobenzyl)-5-cyano-2-(1,1-difluoroethyl)-N-(tetrahydro-2H-pyran-4-yl)imidazo[1,2-a]pyridine-7-carboxamide]: not below 7.00; `CC(C)(C)NC(=O)c1cc(C#N)n2c(CC3CCC(F)(F)CC3)c(C(C)(F)F)nc2c1` [Compound 225, N-tert-Butyl-5-cyano-3-[(4,4-difluorocyclohexyl)methyl]-2-(1,1-difluoroethyl)imidazo[1,2-a]pyridine-7-carboxamide]: not below 7.00.
Consider `C[C@H](NC(=O)c1cc(C#N)n2c(CC3CCC(F)(F)CC3)c(C(F)(F)F)nc2c1)C(=O)N(C)C` [Compound 187, (S)-5-Cyano-3-[(4,4-difluorocyclohexyl)methyl]-N-[1-(dimethylamino)-1-oxopropan-2-yl]-2-(trifluoromethyl)imidazo[1,2-a]pyridine-7-carboxamide], for which the negative logarithm of the IC50 (pIC50) was not below 7.00.
`N#Cc1cc(C(=O)NCC2(O)CC2)cc2nc(C(F)(F)F)c(CC3CCC(F)(F)CC3)n12` [Compound 69, 5-Cyano-3-[(4,4-difluorocyclohexyl)methyl]-N-[(1-hydroxycyclopropyl)methyl]-2-(trifluoromethyl)imidazo[1,2-a]pyridine-7-carboxamide]: the pIC50 was not below 7.00.
The result for `O=C(NCCCn1ccnc1)c1cc(Cl)n2c(CC3CCC(F)(F)CC3)c(C(F)(F)F)nc2c1` [Compound 100, N-[3-(1H-Imidazol-1-yl)propyl]-5-chloro-3-[(4,4-difluorocyclohexyl)methyl]-2-(trifluoromethyl)imidazo[1,2-a]pyridine-7-carboxamide] reads not below 7.00; that for `CN(C)C(C)(C)CNC(=O)c1cc(C#N)n2c(CC3CCC(F)(F)CC3)c(C(F)(F)F)nc2c1` [Compound 156, 5-Cyano-3-[(4,4-difluorocyclohexyl)methyl]-N-[2-(dimethylamino)-2-methylpropyl]-2-(trifluoromethyl)imidazo[1,2-a]pyridine-7-carboxamide], not below 7.00.
As to `Cc1cc(-c2nc3c([nH]2)CCCC3)cc2nc(C(F)(F)F)c(CC3CCC(F)(F)CC3)n12` [Compound 73, 2-{3-[(4,4-Difluorocyclohexyl)methyl]-5-methyl-2-(trifluoromethyl)imidazo[1,2-a]pyridin-7-yl}-4,5,6,7-tetrahydro-1H-benzo[d]imidazol], the pIC50 is not below 7.00.
In the case of `O=C(CC1CCOCC1)NNC(=O)c1cc(Cl)n2c(CC3CCC(F)(F)CC3)c(C(F)(F)F)nc2c1` [Compound 143, 5-Chloro-3-[(4,4-difluorocyclohexyl)methyl]-N′-[2-(tetrahydro-2H-pyran-4-yl)acetyl]-2-(trifluoromethyl)imidazo[1,2-a]pyridine-7-carbohydrazide], the pIC50 was not below 7.00.
